Results as given in ChEMBL document CHEMBL1131260, “Studies on selectin blockers. 6. Discovery of homologous fucose sugar unit necessary for E-selectin binding” (J Med Chem, 1998).

Target: T1, E-selectin (Homo sapiens, UniProt P16581)
T1 sequence (P16581 whole entry): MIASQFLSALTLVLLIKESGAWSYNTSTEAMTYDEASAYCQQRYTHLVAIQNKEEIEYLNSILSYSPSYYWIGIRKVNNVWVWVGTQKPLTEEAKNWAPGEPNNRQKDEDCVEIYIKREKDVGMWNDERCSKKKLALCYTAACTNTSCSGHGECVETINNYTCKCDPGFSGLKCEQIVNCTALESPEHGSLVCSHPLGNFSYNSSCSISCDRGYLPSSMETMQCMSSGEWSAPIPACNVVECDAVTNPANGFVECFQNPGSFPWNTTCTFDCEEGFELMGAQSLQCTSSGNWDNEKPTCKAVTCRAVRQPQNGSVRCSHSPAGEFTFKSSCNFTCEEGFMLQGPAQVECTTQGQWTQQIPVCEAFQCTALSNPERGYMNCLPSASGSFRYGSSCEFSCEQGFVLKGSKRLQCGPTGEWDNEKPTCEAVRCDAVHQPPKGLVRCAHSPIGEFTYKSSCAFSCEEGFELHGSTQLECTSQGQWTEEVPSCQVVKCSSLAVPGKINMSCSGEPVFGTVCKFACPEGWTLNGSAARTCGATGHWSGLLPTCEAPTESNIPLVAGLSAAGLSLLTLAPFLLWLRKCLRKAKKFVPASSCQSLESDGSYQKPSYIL
Assay: In vitro inhibitory activity against Selectin E-sialyl Lewis X (sLex) binding

| SMILES | IC50 [µM] |
| --- | --- |
| CCCCCCCCCCCCCCC(CCCCCCCCCCCCCC)C(=O)N[C@@H](CO[C@@H]1O[C@H](C(C)O)[C@@H](O)[C@@H]1O)C(=O)N[C@H](CCC(=O)O)C(=O)NC (some centres undefined) | 3.1 |
| CCCCCCCCCCCCCCC(CCCCCCCCCCCCCC)C(=O)N[C@H](CO[C@@H]1O[C@H](C(C)O)[C@@H](O)[C@@H]1O)C(=O)N[C@@H](CCC(=O)O)C(=O)NC.N=C(N)NCCC[C@H](N)C=O (some centres undefined) | 4.3 |
| CCCCCCCCCCCCCCC(CCCCCCCCCCCCCC)C(=O)NC(COC1O[C@@H](O)[C@@H](O)[C@H](O)[C@@H]1O)C(=O)N[C@H](CCC(=O)O)C(=O)NC (single isomer, unassigned) | 13 |
| CCCCCCCCCCCCCCC(CCCCCCCCCCCCCC)C(=O)NC(CO[C@@H]1O[C@@H](O)[C@@H](O)[C@H](O)[C@@H]1O)C(=O)N[C@@H](CCC(=O)O)C(=O)NC (single isomer, unassigned) | 1.5 |
